# Test results: BindingDB's records for doi:10.1021/ml200223s (2011)
# pIC50: −log10 of the molar value.
# Experiment: Antagonist activity at CRTH2 receptor in human whole blood assessed as inhibition of PGD2-induced eosinophil shape change incubated for 20 mins prior to PGD2-challenge measured after 10 mins by flow cytometry
compound,measurement,value
CCCCC(=O)N(Cc1ccc2c(c1)OCCO2)c1cc(F)cc(-c2nnn[nH]2)c1,pIC50,7.40
